Consider 18 compounds from patent publication US8574563B2 (Bristol-Myers Squibb Company, priority 2006, dated 2013).

SMILES strings stand for the structures.

The subject of the test is HCV 1b-377-neo replicon cells. Description: HCV replicon assay, HCV 1b-377-neo replicon cells (1b FRET). The class given is cell-based, Hepatitis C virus genotype 1b. The conditions noted are these: Hepatitis C virus, HCV 1b-377-neo replicon cells; HCV 1b genotype; read-out: EC50 range against HCV 1b (Table 2, Range). Summed up:
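FRET-based replicon assay in HCV 1b-377-neo cells, including a comparison line carrying the NS5A Y2065H mutation that confers resistance to a reference compound.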
Take `COC(=O)N[C@H](C(=O)N1CCC[C@H]1c1ncc(-c2ccc(-c3ccc(-c4cnc([C@@H]5CCCN5C(=O)[C@@H](Nc5noc(N)n5)C(C)C)[nH]4)cc3)cc2)[nH]1)C(C)C` [cj-16, methyl ((1S)-1-(((2S)-2-(5-(4′-(2-((2S)-1-(N-(5-amino-1,2,4-oxadiazol-3-yl)-L-valyl)-2-pyrrolidinyl)-1H-imidazol-5-yl)-4-biphenylyl)-1H-imidazol-2-yl)-1-pyrrolidinyl)carbonyl)-2-methylpropyl)carbamate]: the EC50 is 0.001 to 0.999 nM. Turning to `COC(=O)N[C@H](C(=O)N1CCC[C@H]1c1ncc(-c2ccc(-c3ccc(-c4cnc([C@@H]5CCCN5C(=O)[C@@H](NC(=NC#N)N(C)C)C(C)C)[nH]4)cc3)cc2)[nH]1)C(C)C` [cj-17, methyl ((1S)-1-(((2S)-2-(5-(4′-(2-((2S)-1-(N-(cyano(dimethyl)carbamimidoyl)-L-valyl)-2-pyrrolidinyl)-1H-imidazol-5-yl)-4-biphenylyl)-1H-imidazol-2-yl)-1-pyrrolidinyl)carbonyl)-2-methylpropyl)carbamate], the EC50 was 0.001 to 0.999 nM.

Consider `COC(=O)N[C@H](C(=O)N1CCC[C@H]1c1ncc(-c2ccc(-c3ccc(-c4cnc([C@@H]5CCCN5C(=O)[C@@H](Nc5cccnc5)C(C)C)[nH]4)cc3)cc2)[nH]1)C(C)C` [cj-20, methyl ((1S)-2-methyl-1-(((2S)-2-(5-(4′-(2-((2S)-1-(N-3-pyridinyl-L-valyl)-2-pyrrolidinyl)-1H-imidazol-5-yl)-4-biphenylyl)-1H-imidazol-2-yl)-1-pyrrolidinyl)carbonyl)propyl)carbamate], for which the EC50 is 0.001 to 0.999 nM. In the case of `COC(=O)N[C@@H](C)C(=O)N1CCC[C@H]1c1ncc(-c2ccc(-c3ccc(-c4cnc([C@@H]5CCCN5C(=O)[C@@H](Nc5cccnc5)C(C)C)[nH]4)cc3)cc2)[nH]1` [cj-20a, methyl ((1S)-1-methyl-2-oxo-2-((2S)-2-(5-(4′-(2-((2S)-1-(N-3-pyridinyl-L-valyl)-2-pyrrolidinyl)-1H-imidazol-5-yl)-4-biphenylyl)-1H-imidazol-2-yl)-1-pyrrolidinyl)ethyl)carbamate] it was 0.001 to 0.999 nM. In the case of `COC(=O)N[C@H](C(=O)N1CCC[C@H]1c1ncc(-c2ccc(-c3ccc(-c4cnc([C@@H]5CCCN5C(=O)[C@@H](Nc5cccnc5)C(C)C)[nH]4)cc3)cc2)[nH]1)[C@@H](C)OC` [cj-20b, methyl ((1S,2R)-2-methoxy-1-(((2S)-2-(5-(4′-(2-((2S)-1-(N-3-pyridinyl-L-valyl)-2-pyrrolidinyl)-1H-imidazol-5-yl)-4-biphenylyl)-1H-imidazol-2-yl)-1-pyrrolidinyl)carbonyl)propyl)carbamate] it was 0.001 to 0.999 nM; in that of `CCN(CC)[C@@H](C(=O)N1CCC[C@H]1c1ncc(-c2ccc(-c3ccc(-c4cnc([C@@H]5CCCN5C(=O)[C@@H](Nc5cccnc5)C(C)C)[nH]4)cc3)cc2)[nH]1)c1ccccc1` [cj-20c, N-((1S)-1-(((2S)-2-(5-(4′-(2-((2S)-1-((2R)-2-(diethylamino)-2-phenylacetyl)-2-pyrrolidinyl)-1H-imidazol-5-yl)-4-biphenylyl)-1H-imidazol-2-yl)-1-pyrrolidinyl)carbonyl)-2-methylpropyl)-3-pyridinamine], 0.001 to 0.999 nM. In the case of `COC(=O)N[C@H](C(=O)N1CCC[C@H]1c1ncc(-c2ccc(-c3ccc(-c4cnc([C@@H]5CCCN5C(=O)[C@@H](Nc5cncnc5)C(C)C)[nH]4)cc3)cc2)[nH]1)C(C)C` [cj-20d, methyl ((1S)-2-methyl-1-(((2S)-2-(5-(4′-(2-((2S)-1-(N-5-pyrimidinyl-L-valyl)-2-pyrrolidinyl)-1H-imidazol-5-yl)-4-biphenylyl)-1H-imidazol-2-yl)-1-pyrrolidinyl)carbonyl)propyl)carbamate] it was 0.001 to 0.999 nM; in that of `CCN(CC)[C@@H](C(=O)N1CCC[C@H]1c1ncc(-c2ccc(-c3ccc(-c4cnc([C@@H]5CCCN5C(=O)[C@H](Cc5c[nH]nn5)NC(=O)OC)[nH]4)cc3)cc2)[nH]1)c1ccccc1` [cj-32, methyl ((1S)-2-((2S)-2-(5-(4′-(2-((2S)-1-((2R)-2-(diethylamino)-2-phenylacetyl)-2-pyrrolidinyl)-1H-imidazol-5-yl)-4-biphenylyl)-1H-imidazol-2-yl)-1-pyrrolidinyl)-2-oxo-1-(1H-1,2,3-triazol-4-ylmethyl)ethyl)carbamate], 0.001 to 0.999 nM.

As to `COC(=O)N[C@@H](C)C(=O)N1CCC[C@H]1c1ncc(-c2ccc(-c3ccc(-c4cnc([C@@H]5CCCN5C(=O)[C@H](Cc5c[nH]nn5)NC(=O)OC)[nH]4)cc3)cc2)[nH]1` [cj-33, methyl ((1S)-2-((2S)-2-(5-(4′-(2-((2S)-1-(N-(methoxycarbonyl)-L-alanyl)-2-pyrrolidinyl)-1H-imidazol-5-yl)-4-biphenylyl)-1H-imidazol-2-yl)-1-pyrrolidinyl)-2-oxo-1-(1H-1,2,3-triazol-4-ylmethyl)ethyl)carbamate], the EC50 is 0.001 to 0.999 nM. In the case of `COC(=O)N[C@@H](Cc1c[nH]nn1)C(=O)N1CCC[C@H]1c1ncc(-c2ccc(-c3ccc(-c4cnc([C@@H]5CCCN5C(=O)[C@@H](NC(=O)OC)C(C)C)[nH]4)cc3)cc2)[nH]1` [cj-34, methyl ((1S)-1-(((2S)-2-(5-(4′-(2-((2S)-1-((2S)-2-((methoxycarbonyl)amino)-3-(1H-1,2,3-triazol-4-yl)propanoyl)-2-pyrrolidinyl)-1H-imidazol-5-yl)-4-biphenylyl)-1H-imidazol-2-yl)-1-pyrrolidinyl)carbonyl)-2-methylpropyl)carbamate] it was 0.001 to 0.999 nM; in that of `COC(=O)N[C@@H](Cc1c[nH]nn1)C(=O)N1CCC[C@H]1c1ncc(-c2ccc(-c3ccc(-c4cnc([C@@H]5CCCN5C(=O)[C@@H](NC(=O)OC)[C@@H](C)OC)[nH]4)cc3)cc2)[nH]1` [cj-35, methyl ((1S)-2-((2S)-2-(5-(4′-(2-((2S)-1-((2S,3R)-3-methoxy-2-((methoxycarbonyl)amino)butanoyl)-2-pyrrolidinyl)-1H-imidazol-5-yl)-4-biphenylyl)-1H-imidazol-2-yl)-1-pyrrolidinyl)-2-oxo-1-(1H-1,2,3-triazol-4-ylmethyl)ethyl)carbamate], 1 to 99 nM. Turning to `CCN(CC)[C@@H](C(=O)N1CCC[C@H]1c1ncc(-c2ccc(-c3ccc(-c4cnc([C@@H]5CCCN5C(=O)[C@H](Cn5cccn5)NC(=O)OC)[nH]4)cc3)cc2)[nH]1)c1ccccc1` [cj-36, methyl ((1S)-2-((2S)-2-(5-(4′-(2-((2S)-1-((2R)-2-(diethylamino)-2-phenylacetyl)-2-pyrrolidinyl)-1H-imidazol-5-yl)-4-biphenylyl)-1H-imidazol-2-yl)-1-pyrrolidinyl)-2-oxo-1-(1H-pyrazol-1-ylmethyl)ethyl)carbamate], the EC50 lay in the range of 0.001 to 0.999 nM.

For `COC(=O)N[C@@H](C)C(=O)N1CCC[C@H]1c1ncc(-c2ccc(-c3ccc(-c4cnc([C@@H]5CCCN5C(=O)[C@H](Cn5cccn5)NC(=O)OC)[nH]4)cc3)cc2)[nH]1` [cj-37, methyl ((1S)-2-((2S)-2-(5-(4′-(2-((2S)-1-(N-(methoxycarbonyl)-L-alanyl)-2-pyrrolidinyl)-1H-imidazol-5-yl)-4-biphenylyl)-1H-imidazol-2-yl)-1-pyrrolidinyl)-2-oxo-1-(1H-pyrazol-1-ylmethyl)ethyl)carbamate], the EC50 lay in the range of 0.001 to 0.999 nM.

Consider `COC(=O)N[C@@H](Cn1cccn1)C(=O)N1CCC[C@H]1c1ncc(-c2ccc(-c3ccc(-c4cnc([C@@H]5CCCN5C(=O)[C@@H](NC(=O)OC)C(C)C)[nH]4)cc3)cc2)[nH]1` [cj-38, methyl ((1S)-1-(((2S)-2-(5-(4′-(2-((2S)-1-((2S)-2-((methoxycarbonyl)amino)-3-(1H-pyrazol-1-yl)propanoyl)-2-pyrrolidinyl)-1H-imidazol-5-yl)-4-biphenylyl)-1H-imidazol-2-yl)-1-pyrrolidinyl)carbonyl)-2-methylpropyl)carbamate], for which the EC50 was 0.001 to 0.999 nM. In the case of `COC(=O)N[C@@H](Cn1cccn1)C(=O)N1CCC[C@H]1c1ncc(-c2ccc(-c3ccc(-c4cnc([C@@H]5CCCN5C(=O)[C@@H](NC(=O)OC)[C@@H](C)OC)[nH]4)cc3)cc2)[nH]1` [cj-39, methyl ((1S)-2-((2S)-2-(5-(4′-(2-((2S)-1-(N-(methoxycarbonyl)-O-methyl-L-threonyl)-2-pyrrolidinyl)-1H-imidazol-5-yl)-4-biphenylyl)-1H-imidazol-2-yl)-1-pyrrolidinyl)-2-oxo-1-(1H-pyrazol-1-ylmethyl)ethyl)carbamate] it was 0.001 to 0.999 nM; in that of `CCN(CC)[C@@H](C(=O)N1CCC[C@H]1c1ncc(-c2ccc(-c3ccc(-c4cnc([C@@H]5CCCN5C(=O)[C@H](Cc5cn(C)cn5)NC(=O)OC)[nH]4)cc3)cc2)[nH]1)c1ccccc1` [cj-40, methyl ((1S)-2-((2S)-2-(5-(4′-(2-((2S)-1-((2R)-2-(diethylamino)-2-phenylacetyl)-2-pyrrolidinyl)-1H-imidazol-5-yl)-4-biphenylyl)-1H-imidazol-2-yl)-1-pyrrolidinyl)-1-((1-methyl-1H-imidazol-4-yl)methyl)-2-oxoethyl)carbamate], 0.001 to 0.999 nM; in that of `COC(=O)N[C@@H](C)C(=O)N1CCC[C@H]1c1ncc(-c2ccc(-c3ccc(-c4cnc([C@@H]5CCCN5C(=O)[C@H](Cc5cn(C)cn5)NC(=O)OC)[nH]4)cc3)cc2)[nH]1` [cj-41, methyl ((1S)-2-((2S)-2-(5-(4′-(2-((2S)-1-(N-(methoxycarbonyl)-L-alanyl)-2-pyrrolidinyl)-1H-imidazol-5-yl)-4-biphenylyl)-1H-imidazol-2-yl)-1-pyrrolidinyl)-1-((1-methyl-1H-imidazol-4-yl)methyl)-2-oxoethyl)carbamate], 0.001 to 0.999 nM. In the case of `COC(=O)N[C@@H](Cc1cn(C)cn1)C(=O)N1CCC[C@H]1c1ncc(-c2ccc(-c3ccc(-c4cnc([C@@H]5CCCN5C(=O)[C@@H](NC(=O)OC)C(C)C)[nH]4)cc3)cc2)[nH]1` [cj-42, methyl ((1S)-1-(((2S)-2-(5-(4′-(2-((2S)-1-((2S)-2-((methoxycarbonyl)amino)-3-(1-methyl-1H-imidazol-4-yl)propanoyl)-2-pyrrolidinyl)-1H-imidazol-5-yl)-4-biphenylyl)-1H-imidazol-2-yl)-1-pyrrolidinyl)carbonyl)-2-methylpropyl)carbamate] it was 0.001 to 0.999 nM.

Usually EC50 stands for the concentration that produces a half-maximal response.
